Data on 13 compounds can be found in patent publication US20240108738A1, “BICYCLIC PEPTIDE LIGANDS SPECIFIC FOR NK CELLS” (Bicycle Tx Limited, priority 2021, published 2024).

Numbered stars: 1 amine (or outer) side, 2 acyl side, 3 side chain; on linkers, the order of the positions; unused ones are H or OH. Bridge positions count the residues as written; N and C are the ends. Square brackets hold non-standard residues; d marks the D form. Peptide text beside a SMILES is read from it. TATA = O=C(CC[*:1])N1CN(C(=O)CC[*:2])CN(C(=O)CC[*:3])C1; Cba = N[C@@H](CC1CCC1)C(=O)O; Pen = CC(C)(S)[C@H](N)C(=O)O; dNva = CCC[C@@H](N)C(=O)O; Nva = CCC[C@H](N)C(=O)O

T1 sequence (O76036 22-304): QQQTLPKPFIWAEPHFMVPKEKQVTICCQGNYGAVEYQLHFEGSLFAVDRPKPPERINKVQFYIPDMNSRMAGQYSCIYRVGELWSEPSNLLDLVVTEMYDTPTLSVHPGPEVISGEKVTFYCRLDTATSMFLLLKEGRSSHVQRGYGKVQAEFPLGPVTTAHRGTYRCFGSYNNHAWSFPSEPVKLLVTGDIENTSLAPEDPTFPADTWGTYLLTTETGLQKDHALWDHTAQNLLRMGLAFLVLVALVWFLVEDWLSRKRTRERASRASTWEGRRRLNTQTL

This test has as its target T1, Fc-tagged human NKp46 (Homo sapiens, UniProt O76036).
T1 construct: purchased ACROBiosystems NC1-H5257
The test can be described thus: NKp46 SPR assay (Method 1 and/or Method 2). The settings on record: SPR Method 1 and/or Method 2, Table 3B. The format is binding. On the procedure: SPR experiments were performed to determine ka (M^−1s^−1), kd (s^−1), KD (nM) values (where measurable) of various bicyclic peptides to immobilised NKp46.
For analysis of peptide binding to NKp46, a Biacore 3000 instrument was used with a Cytiva Streptavidin chip. Capture of the protein (recombinant human NKp46-Fc fusion biotinylated via Avi-tag) was carried out at 25° C. with HBS-N (10 mM HEPES, 0.15 M NaCl, pH 7.4) as the running buffer and biotinylated NKp46 was captured to a level of 400-800 RU using a dilution of protein to 0.2 μM in buffer. Buffer was then changed to PBS/0.05% Tween 20 and a dilution series of the peptides was prepared in this buffer with a final DMSO concentration of 0.5% with a top peptide concentration of 100 nM-5000 nM and 6 further 2 or 3-fold dilutions. The SPR analysis was run at 25° C. and a flow rate of 50 μl/min with 60 seconds association and 200-400 seconds dissociation time. Data were corrected for DMSO excluded volume effects. All data were double-referenced for blank injections and reference surface using standard processing procedures and data processing and kinetic fitting were performed using Scrubber software, version 2.0c (BioLogic Software). Data were fitted using simple 1:1 binding model allowing for mass transport effects where appropriate.
Peptides were tested against Fc-tagged human NKp46 (ACROBiosystems, cat no. NC1-H5257).
For analysis of peptide binding, a Biacore 8k+ instrument was used with a CM5 chip (Cytiva). All experiments were carried out at 25° C. Anti-human IgG (Fc) antibody (Cytiva) was immobilized on all flow cells by standard amine coupling chemistry. The running buffer was HBS-N(Cytiva, 10 mM HEPES, 0.15 M NaCl, pH 7.4) and the flow rate was 10 μL/min. The carboxymethyl dextran surface was activated with a 1:1 ratio of 0.4 M 1-ethyl-3-(3-dimethylaminopropyl) carbodiimide hydrochloride (EDC)/0.1 M N-hydroxy succinimide (NHS) (Cytiva) for 420s. […] Residual activated groups were blocked with a 420 s injection of 1 M ethanolamine (pH 8.5). The final surface density was 3000-5000 RU. Fc-tagged human NKp46 was diluted to 0.1 μM in HBS-N and was captured on flow cell 2 only of the sensor chip at a flow rate of 10 μL/min to 500-1000 RU. The buffer was then changed to PBS-P+(Cytiva) supplemented with 2% DMSO. […] The flow rate was 50 μL/min with 60 s association and 400 s dissociation. Data were corrected for DMSO volume exclusion effects. All data were double-referenced against blank injections and reference surface response using standard processing procedures. Data processing and kinetic fitting was performed using Biacore Insight Evaluation Software with Extended Screening and Characterization Extension (Cytiva). Data were fitted using steady state affinity 1:1 binding model to determine KD. Data were fitted using kinetic 1:1 binding model to determine kinetic constants where appropriate.
As for `CC[C@H](C)[C@@H]1NC(=O)[C@@H](C)NC(=O)[C@H](Cc2c[nH]c3ccccc23)NC(=O)[C@H](CCC(N)=O)NC(=O)[C@@H]2CSCCC(=O)N3CN(CN(C3)C(=O)CCSC[C@@H](C(=O)N[C@@H](C)C(N)=O)NC1=O)C(=O)CCSC[C@H](NC(=O)[C@H](C)N)C(=O)N[C@@H](CC(=O)O)C(=O)N[C@@H](CC(C)C)C(=O)N[C@@H]([C@@H](C)O)C(=O)N[C@@H]([C@@H](C)O)C(=O)N[C@@H](Cc1c[nH]cn1)C(=O)N[C@@H](CC(N)=O)C(=O)N2` [BCY18292, A-(SEQ ID NO: 135)-A] (H-ACDLTTHNCQW[dA]ICA-NH2; linker 2-9-14 via TATA; N-terminus and C-terminus assumed), the equilibrium dissociation constant (Kd) is 1460 nM.
To `CC[C@H](C)[C@@H]1NC(=O)[C@@H]2CSCCC(=O)N3CN(CN(C3)C(=O)CCSC[C@@H](C(=O)N[C@@H](C)C(N)=O)NC(=O)[C@H](C(C)C)NC(=O)CNC(=O)[C@H](Cc3c[nH]c4ccccc34)NC1=O)C(=O)CCSC[C@H](NC(=O)[C@H](C)N)C(=O)N[C@@H](CC(=O)O)C(=O)N[C@@H](CC(C)C)C(=O)N[C@@H]([C@@H](C)O)C(=O)N[C@@H]([C@@H](C)O)C(=O)N[C@@H](Cc1c[nH]cn1)C(=O)N[C@@H](CC(N)=O)C(=O)N2` [BCY14458, A-(SEQ ID NO: 104)-A] (H-ACDLTTHNCIWGVCA-NH2; linker 2-9-14 via TATA; C-terminus assumed) belongs 1260 nM; to `CSCC[C@@H]1NC(=O)[C@@H]2CSCCC(=O)N3CN(CN(C3)C(=O)CCSC[C@@H](C(=O)N[C@@H](C)C(N)=O)NC(=O)[C@H](C(C)C)NC(=O)[C@H](CCCCN)NC(=O)CNC(=O)[C@H]([C@@H](C)O)NC(=O)[C@H](Cc3ccc(O)cc3)NC1=O)C(=O)CCSC[C@H](NC(=O)[C@H](C)N)C(=O)N[C@@H](CC(N)=O)C(=O)N[C@@H](CC(C)C)C(=O)N[C@@H](CCC(N)=O)C(=O)N[C@@H](C)C(=O)N1CCC[C@H]1C(=O)N2` [BCY18318, A-(SEQ ID NO: 80)-A] (H-ACNLQAPCMYTGKVCA-NH2; linker 2-8-15 via TATA), 1920 nM; to `CC[C@H](C)[C@@H]1NC(=O)CNC(=O)[C@H](Cc2c[nH]c3c(C)cccc23)NC(=O)[C@H](CCC(N)=O)NC(=O)[C@@H]2CSCCC(=O)N3CN(CN(C3)C(=O)CCSC[C@@H](C(=O)N[C@@H](C)C(N)=O)NC1=O)C(=O)CCSC[C@H](NC(=O)[C@H](C)N)C(=O)N[C@@H](CC(=O)O)C(=O)N[C@@H](CC(C)C)C(=O)N[C@@H]([C@@H](C)O)C(=O)N[C@@H]([C@@H](C)O)C(=O)N[C@@H](Cc1c[nH]cn1)C(=O)N[C@@H](CC(N)=O)C(=O)N2` [BCY19723, A-(SEQ ID NO: 161)-A], 2270 nM.
To `CC(=O)N[C@@H]1C(=O)N[C@@H](Cc2ccc(O)cc2)C(=O)N[C@@H](CC2CCC2)C(=O)N2CCC[C@H]2C(=O)N[C@@H](CC(=O)O)C(=O)N[C@@H](Cc2ccc(O)cc2)C(=O)N[C@@H](CC(C)C)C(=O)N[C@H]2CSCCC(=O)N3CN(CN(C3)C(=O)CCSC1(C)C)C(=O)CCSC[C@@H](C(N)=O)NC(=O)[C@H](Cc1ccc(O)cc1)NC(=O)[C@H](CCC(=O)O)NC(=O)[C@H](CC(=O)O)NC(=O)[C@@H](C)NC2=O` [BCY19689, Ac-(SEQ ID NO: 153)] (Ac-[Pen]Y[Cba]PDYLC[dA]DEYC-NH2; linker 1-8-13 via TATA; C-terminus assumed) belongs 16 nM; to `CC(=O)N[C@H]1CSCCC(=O)N2CN3CN(C2)C(=O)CCSC[C@H](NC(=O)[C@H](CC(C)C)NC(=O)[C@H](Cc2ccc(O)cc2)NC(=O)[C@H](CC(=O)O)NC(=O)[C@@H]2CCCN2C(=O)[C@H](CC2CCC2)NC(=O)[C@H](CCO)NC1=O)C(=O)N[C@H](C)C(=O)N[C@@H](CC(=O)O)C(=O)N[C@@H](CCC(=O)O)C(=O)N[C@@H](Cc1ccc(O)cc1)C(=O)N[C@H](C(N)=O)CSCCC3=O` [BCY18434, Ac-(SEQ ID NO: 137)], 44 nM.
As to `CSCC[C@@H]1NC(=O)[C@H](CCCCN)NC(=O)[C@@H]2CCCN2C(=O)[C@H](Cc2c[nH]cn2)NC(=O)[C@H]([C@@H](C)O)NC(=O)[C@H](CC(N)=O)NC(=O)[C@@H]2CCCN2C(=O)[C@@H]2CSCCC(=O)N3CN(CN(C3)C(=O)CCSC[C@@H](C(=O)N[C@@H](C)C(N)=O)NC1=O)C(=O)CCSC[C@H](NC(=O)[C@H](C)N)C(=O)N[C@@H](CC(C)C)C(=O)N[C@@H](CC(C)C)C(=O)N[C@@H](Cc1c[nH]cn1)C(=O)N[C@@H](CCC(=O)O)C(=O)N[C@@H](Cc1c[nH]cn1)C(=O)N2` [BCY15104, A-(SEQ ID NO: 6)-A] (H-ACLLHEHCPNTHPKMCA-NH2; linker 2-8-16 via TATA), the Kd was found to be 2880 nM.
Compound `CCC[C@H]1NC(=O)[C@@H]2CSCCC(=O)N3CN(CN(C3)C(=O)CCSC[C@H](NC(C)=O)C(=O)N[C@@H](Cc3ccc(O)cc3)C(=O)N[C@@H](CC3CCC3)C(=O)N3CCC[C@H]3C(=O)N[C@@H](CC(=O)O)C(=O)N[C@@H](Cc3ccc(O)cc3)C(=O)N[C@@H](CC(C)C)C(=O)N2)C(=O)CCSC[C@@H](C(N)=O)NC(=O)[C@H](Cc2ccc(O)cc2)NC(=O)[C@H](CCC(=O)O)NC(=O)[C@H](CC(=O)O)NC1=O` [BCY18444, Ac-(SEQ ID NO: 145)] (Ac-CY[Cba]PDYLC[dNva]DEYC-NH2; linker 1-8-13 via TATA) displayed a dissociation constant (Kd) of 3.9 nM.
Next, `CC(C)C[C@@H]1NC(=O)[C@@H](NC(=O)[C@H](C)N)CSCCC(=O)N2CN3CN(C2)C(=O)CCSC[C@H](NC(=O)[C@H](Cc2c[nH]cn2)NC(=O)[C@H](CC(=O)O)NC(=O)[C@H](Cc2c[nH]cn2)NC(=O)[C@H](CC(C)C)NC1=O)C(=O)N1CCC[C@H]1C(=O)N[C@@H](CC(N)=O)C(=O)N[C@@H]([C@@H](C)O)C(=O)N[C@@H](Cc1c[nH]cn1)C(=O)N1CCC[C@H]1C(=O)N[C@@H](CCCCN)C(=O)N[C@@H](CC(C)C)C(=O)N[C@H](C(=O)N[C@@H](C)C(N)=O)CSCCC3=O` [BCY15103, A-(SEQ ID NO: 5)-A] (H-ACLLHDHCPNTHPKLCA-NH2; linker 2-8-16 via TATA): 1660 ± 544 nM; `CC[C@H](C)[C@@H]1NC(=O)CNC(=O)[C@H](Cc2c[nH]c3ccccc23)NC(=O)[C@H](C)NC(=O)[C@@H]2CSCCC(=O)N3CN(CN(C3)C(=O)CCSC[C@@H](C(=O)N[C@@H](C)C(N)=O)NC1=O)C(=O)CCSC[C@H](NC(=O)[C@H](C)N)C(=O)N[C@@H](CC(=O)O)C(=O)N[C@@H](CC(C)C)C(=O)N[C@@H]([C@@H](C)O)C(=O)N[C@@H]([C@@H](C)O)C(=O)N[C@@H](Cc1c[nH]cn1)C(=O)N[C@@H](CC(N)=O)C(=O)N2` [BCY18269, A-(SEQ ID NO: 119)-A] (H-ACDLTTHNCAWGICA-NH2; linker 2-9-14 via TATA): 1640 nM; `CC(C)C[C@@H]1NC(=O)[C@H](Cc2ccc(O)cc2)NC(=O)[C@H](CC(=O)O)NC(=O)[C@@H]2CCCN2C(=O)[C@H](CC2CCC2)NC(=O)[C@H](Cc2ccc(O)cc2)NC(=O)[C@@H](NC(=O)[C@H](C)N)CSCCC(=O)N2CN3CN(C2)C(=O)CCSC[C@H](NC1=O)C(=O)N[C@H](C)C(=O)N[C@@H](CC(=O)O)C(=O)N[C@@H](CCC(=O)O)C(=O)N[C@@H](Cc1ccc(O)cc1)C(=O)N[C@H](C(=O)N[C@@H](C)C(N)=O)CSCCC3=O` [BCY16132, A-(SEQ ID NO: 40)-A] (H-ACY[Cba]PDYLC[dA]DEYCA-NH2; linker 2-9-14 via TATA; N-terminus assumed): 3.9 nM.
The compound `CCC[C@@H]1NC(=O)[C@H](CCSC)NC(=O)[C@@H]2CSCCC(=O)N3CN(CN(C3)C(=O)CCSC[C@@H](C(=O)N[C@@H](C)C(N)=O)NC(=O)[C@H](C(C)C)NC(=O)[C@H](CCCCN)NC(=O)CNC(=O)[C@H]([C@@H](C)O)NC1=O)C(=O)CCSC[C@H](NC(=O)[C@H](C)N)C(=O)N[C@@H](CC(N)=O)C(=O)N[C@@H](CC(C)C)C(=O)N[C@@H](CCC(N)=O)C(=O)N[C@@H](C)C(=O)N1CCC[C@H]1C(=O)N2` [BCY19704, A-(SEQ ID NO: 95)-A] (H-ACNLQAPCM[Nva]TGKVCA-NH2; linker 2-8-15 via TATA; N-terminus assumed) gave a dissociation constant Kd of 1620 nM.
To `CC[C@H](C)[C@@H]1NC(=O)CNC(=O)[C@H](Cc2c[nH]c3cc(C)ccc23)NC(=O)[C@H](CCC(N)=O)NC(=O)[C@@H]2CSCCC(=O)N3CN(CN(C3)C(=O)CCSC[C@@H](C(=O)N[C@@H](C)C(N)=O)NC1=O)C(=O)CCSC[C@H](NC(=O)[C@H](C)N)C(=O)N[C@@H](CC(=O)O)C(=O)N[C@@H](CC(C)C)C(=O)N[C@@H]([C@@H](C)O)C(=O)N[C@@H]([C@@H](C)O)C(=O)N[C@@H](Cc1c[nH]cn1)C(=O)N[C@@H](CC(N)=O)C(=O)N2` [BCY19722, A-(SEQ ID NO: 160)-A] belongs 1460 nM.

The Kd is the equilibrium constant for the complex coming apart. Read a high Kd as weaker binding.
